Experimental findings from patent US8481544B2, “Antibacterial compositions” (Biota Europe Limited, priority 2006, dated 2013) are described below.

In brackets after ≈: the same amount, converted by molar mass.

This experiment relates to Enterococcus faecalis ATCC 29212. Put plainly: MIC against Enterococcus faecalis ATCC 29212. Type of experiment: cell-based. The following applies: ATCC29212; Enterococcus faecalis ATCC 29212; read-out: MICs against Enterococcus faecalis, Activity. The method, boiled down: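 MIC measured by broth microdilution or agar dilution following CLSI guidelines (M7-A7 for aerobes, M11-A6 for anaerobes).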
Regarding `CCNC(=O)Nc1nc2cc(Br)cc(-c3cnn(C)c3)c2s1` [Example 5, 1-[5-Bromo-7-(1-methyl-1H-pyrazol-4-yl)-benzothiazol-2-yl]-3-ethyl-urea], the MIC fell in the range of 2 to 16 µg/mL (≈ 5.26 to 42.1 µM).
For `CCNC(=O)Nc1nc2cc(-c3cccnc3)cc(-c3nccc(OC)n3)c2s1` [Example 124, 1-Ethyl-3-[7-(4-methoxy-pyrimidin-2-yl)-5-pyridin-3-yl-benzothiazol-2-yl]-urea] the value was less than 0.25 µg/mL.
`CCNC(=O)Nc1nc2cc(-c3cccnc3)cc(-c3csc(OC)n3)c2s1` [Example 157, 1-Ethyl-3-[7-(2-methoxy-thiazol-4-yl)-5-pyridin-3-yl-benzothiazol-2-yl]-urea]: the MIC lay in the range of 0.25 to 1 µg/mL (≈ 0.608 to 2.43 µM).
Turning to `CCNC(=O)Nc1nc2cc(-c3cccnc3)cc(C(=O)OC)c2s1` [Example 151, 2-(3-Ethyl-ureido)-5-pyridin-3-yl-benzothiazole-7-carboxylic acid methyl ester], the MIC lay within 0.25 to 1 µg/mL (≈ 0.701 to 2.81 µM).
Consider `CCNC(=O)Nc1nc2cc(-c3cccnc3)cc(-c3cccc(O)n3)c2s1` [Example 173, 1-Ethyl-3-[7-(6-hydroxy-pyridin-2-yl)-5-pyridin-3-yl-benzothiazol-2-yl]-urea], for which the MIC lay within 2 to 16 µg/mL (≈ 5.11 to 40.9 µM).
Then `CCNC(=O)Nc1nc2cc(-c3cncc(Cl)c3)cc(-c3cccnc3)c2s1` [Example 48, 1-[5-(5-Chloro-pyridin-3-yl)-7-pyridin-3-yl-benzothiazol-2-yl]-3-ethyl-urea], with 0.25 to 1 µg/mL (≈ 0.61 to 2.44 µM); and `CCNC(=O)Nc1nc2cc(-c3cccnc3)cc(-c3ccc(CO)cn3)c2s1` [Example 96, 1-Ethyl-3-[7-(5-hydroxymethyl-pyridin-2-yl)-5-pyridin-3-yl-benzothiazol-2-yl]-urea], with less than 0.25 µg/mL; and `CCNC(=O)Nc1nc2cc(-c3cnc(C#N)nc3)cc(-c3cccnc3)c2s1` [Example 32, 1-[5-(2-Cyano-pyrimidin-5-yl)-7-pyridin-3-yl-benzothiazol-2-yl]-3-ethyl-urea], with 2 to 16 µg/mL (≈ 4.98 to 39.9 µM).
Then `CCNC(=O)Nc1nc2cc(-c3cnc4c(c3)CNCC4)cc(-c3ccccn3)c2s1` [Example 65, 1-Ethyl-3-[7-pyridin-2-yl-5-(5,6,7,8-tetrahydro-[1,6]naphthyridin-3-yl)-benzothiazol-2-yl]-urea], with 0.25 to 1 µg/mL (≈ 0.581 to 2.32 µM).
Then `CCNC(=O)Nc1nc2cc(-c3ccc(NCCN(C)C)nc3)cc(-c3ccccn3)c2s1` [Example 61, 1-{5-[6-(2-Dimethylamino-ethylamino)-pyridin-3-yl]-7-pyridin-2-yl-benzothiazol-2-yl}-3-ethyl-urea], with 0.25 to 1 µg/mL (≈ 0.542 to 2.17 µM); and `CCNC(=O)Nc1nc2cc(-c3cccnc3)cc(-c3cc(C#N)ccn3)c2s1` [Example 119, 1-[7-(4-Cyano-pyridin-2-yl)-5-pyridin-3-yl-benzothiazol-2-yl]-3-ethyl-urea], with less than 0.25 µg/mL; and `CCNC(=O)Nc1nc2cc(-c3cccnc3)cc(-c3cc(Cl)ccn3)c2s1` [Example 127, 1-[7-(4-Chloro-pyridin-2-yl)-5-pyridin-3-yl-benzothiazol-2-yl]-3-ethyl-urea], with less than 0.25 µg/mL.
As to `CCNC(=O)Nc1nc2cc(-c3ccc(N)nc3)cc(-c3ccccn3)c2s1` [Example 138, 1-[5-(6-Amino-pyridin-3-yl)-7-pyridin-2-yl-benzothiazol-2-yl]-3-ethyl-urea], the MIC is less than 0.25 µg/mL.
Then `CCNC(=O)Nc1nc2cc(-c3cccnc3)cc(-c3ncco3)c2s1` [Example 165, 1-Ethyl-3-(7-oxazol-2-yl-5-pyridin-3-yl-benzothiazol-2-yl)-urea], with 0.25 to 1 µg/mL (≈ 0.684 to 2.74 µM); and `CCNC(=O)Nc1nc2cc(-c3cccnc3)cc(-c3ccc(C#N)cn3)c2s1` [Example 107, 1-[7-(5-Cyano-pyridin-2-yl)-5-pyridin-3-yl-benzothiazol-2-yl]-3-ethyl-urea], with less than 0.25 µg/mL.
Then `CCNC(=O)Nc1nc2cc(-c3cncc(N4CCN(C)CC4)c3)cc(-c3ccccn3)c2s1` [Example 62, 1-Ethyl-3-{5-[5-(4-methyl-piperazin-1-yl)-pyridin-3-yl]-7-pyridin-2-yl-benzothiazol-2-yl}-urea], with 0.25 to 1 µg/mL (≈ 0.528 to 2.11 µM).
Then `CCNC(=O)Nc1nc2cc(-c3cccnc3)cc(-c3ncccc3C(F)(F)F)c2s1` [Example 128, 1-Ethyl-3-[5-pyridin-3-yl-7-(3-trifluoromethyl-pyridin-2-yl)-benzothiazol-2-yl]-urea], with 0.25 to 1 µg/mL (≈ 0.564 to 2.26 µM).
For the compound `CCNC(=O)Nc1nc2cc(-c3cccnc3)cc(-c3ncccn3)c2s1` [Example 93, 1-Ethyl-3-(5-pyridin-3-yl-7-pyrimidin-2-yl-benzothiazol-2-yl)-urea], the MIC lay in the range of 0.25 to 1 µg/mL (≈ 0.664 to 2.66 µM).
`CCNC(=O)Nc1nc2cc(-c3cncc(C(=O)NCCN4CCOCC4)c3)cc(-c3ccccn3)c2s1` [Example 68, 5-[2-(3-Ethyl-ureido)-7-pyridin-2-yl-benzothiazol-5-yl]-N-(2-morpholin-4-yl-ethyl)-nicotinamide]: the MIC lay within 0.25 to 1 µg/mL (≈ 0.47 to 1.88 µM).
Consider `CCNC(=O)Nc1nc2cc(-c3ccc(C)nc3)cc(-c3ccccn3)c2s1` [Example 41, 1-Ethyl-3-[5-(6-methyl-pyridin-3-yl)-7-pyridin-2-yl-benzothiazol-2-yl]-urea], for which the MIC was less than 0.25 µg/mL.
Consider `CCNC(=O)Nc1nc2cc(-c3cccnc3)cc(-c3nccc(N)n3)c2s1` [Example 110, 1-[7-(4-Amino-pyrimidin-2-yl)-5-pyridin-3-yl-benzothiazol-2-yl]-3-ethyl-urea], for which the MIC was less than 0.25 µg/mL.
Take `CCNC(=O)Nc1nc2cc(-c3cccnc3)cc(-c3cc(OC)ccn3)c2s1` [Example 112, 1-Ethyl-3-[7-(4-methoxy-pyridin-2-yl)-5-pyridin-3-yl-benzothiazol-2-yl]-urea]: the MIC was less than 0.25 µg/mL.
In the case of `CCNC(=O)Nc1nc2cc(-c3cncc(N)n3)cc(-c3ccccn3)c2s1` [Example 53, 1-[5-(6-Amino-pyrazin-2-yl)-7-pyridin-2-yl-benzothiazol-2-yl]-3-ethyl-urea], the MIC is less than 0.25 µg/mL.
Then `CCNC(=O)Nc1nc2cc(-c3cccnc3)cc(-c3ccc(C(F)(F)F)cn3)c2s1` [Example 129, 1-Ethyl-3-[5-pyridin-3-yl-7-(5-trifluoromethyl-pyridin-2-yl)-benzothiazol-2-yl]-urea], with 0.25 to 1 µg/mL (≈ 0.564 to 2.26 µM).
For `CCNC(=O)Nc1nc2cc(-c3ccc(NC(C)=O)nc3)cc(-c3ccccn3)c2s1` [Example 133, N-{5-[2-(3-Ethyl-ureido)-7-pyridin-2-yl-benzothiazol-5-yl]-pyridin-2-yl}-acetamide] the value was less than 0.25 µg/mL.
For `CCNC(=O)Nc1nc2cc(-c3ccn(CCO)c(=O)c3)cc(-c3ccccn3)c2s1` [Example 57, 1-Ethyl-3-{5-[1-(2-hydroxy-ethyl)-2-oxo-1,2-dihydro-pyridin-4-yl]-7-pyridin-2-yl-benzothiazol-2-yl}-urea] the value was 0.25 to 1 µg/mL (≈ 0.574 to 2.3 µM); for `CCNC(=O)Nc1nc2cc(-c3ccoc3)cc(-c3ccccn3)c2s1` [Example 37, 1-Ethyl-3-(5-furan-3-yl-7-pyridin-2-yl-benzothiazol-2-yl)-urea], 0.25 to 1 µg/mL (≈ 0.686 to 2.74 µM); for `CCNC(=O)Nc1nc2cc(-c3cccnc3)cc(C(=O)NCC)c2s1` [Example 152, 2-(3-Ethyl-ureido)-5-pyridin-3-yl-benzothiazole-7-carboxylic acid ethylamide], 2 to 16 µg/mL (≈ 5.41 to 43.3 µM).
As for `CCNC(=O)Nc1nc2cc(-c3cnc(N)nc3)cc(-c3cccnc3)c2s1` [Example 14, 1-[5-(2-Amino-pyrimidin-5-yl)-7-pyridin-3-yl-benzothiazol-2-yl]-3-ethyl-urea], the MIC lay within 0.25 to 1 µg/mL (≈ 0.639 to 2.55 µM).
